Each block holds one compound with its values, some of them ahead of it.
Key:
[1] = Vorinostat, VG and VA serum pharmacokinetics; type: in vivo, human; settings: for Change in Tmax, Cmax, and AUC0-8h: DSI schedule, day 1 or day 4, alvocidib escalated over 10–40 mg/m^2
solid tumor patients = settings: cited from earlier work
[2] = tested on: patients with relapsed, refractory, or poor prognosis acute leukemia, or RAEB-2; assay: Phase I 3+3 dose escalation: DLT and MTD of alvocidib combined with vorinostat; type: in vivo, human
[3] = Alvocidib plasma pharmacokinetics; type: in vivo, human; settings: for Overall mean CL of alvocidib: initial dose, geometric mean ± SD
[4] = cited from earlier work
[5] = vorinostat 200 mg orally with alvocidib
[6] = days 2 and 16, 28-day cycles, with vorinostat 800 mg

SMILES: O=C(CCCCCCC(=O)Nc1ccccc1)NO [vorinostat, Vorinostat]
Change in Tmax, Cmax, and AUC0-8h [1]: no change
Vorinostat AUC higher, WLMI compared to DSI schedule [1, 5]: 25–50%
Vorinostat Cmax higher, WLMI compared to DSI schedule [1, 5]: 25–50%
MTD, vorinostat (solid tumor patients; days 1–3 and 15–17, 28-day cycles, with alvocidib WLMI): 800 mg
MTD for this regimen, vorinostat ([2]; TID, with alvocidib WLMI 20/20 mg/m^2): 200 mg

SMILES: CN1CC[C@H](c2c(O)cc(O)c3c(=O)cc(-c4ccccc4Cl)oc23)[C@H](O)C1 [alvocidib, flavopiridol]
Plasma concentration immediately before dosing on days 4 or 8 (accumulation) ([3]; daily and weekly infusion schedules, on average): < 1 % of the subsequent Cmax
Mean CL of alvocidib ([3]; day 4 dose, DSI schedule, after vorinostat 200 mg TID for 3 days): 9.9 ± 5.4 L/h/m^2
Mean CL of alvocidib ([3]; day 8 dose, WLMI schedule, after vorinostat 200 mg TID for 7 days): 11.0 ± 3.9 L/h/m^2
Overall mean CL of alvocidib ([3]; DSI schedule): 13.0 ± 4.8 L/h/m^2
Overall mean CL of alvocidib ([3]; WLMI schedule): 12.2 ± 5.3 L/h/m^2
MTD, alvocidib given over 4 h (solid tumor patients; [6]): 30 mg/m^2
MTD, alvocidib initial 30 min infusion (solid tumor patients; [6]): 30 mg/m^2
Binding to plasma proteins [4]: highly bound
MTD, alvocidib maintenance infusion ([2]; 4-h maintenance infusion, days 1 and 8 of 21-day cycle (WLMI), with vorinostat 200 mg orally TID days 1–14): 20 mg/m^2
MTD, alvocidib loading infusion ([2]; 30-min loading infusion, days 1 and 8 of 21-day cycle (WLMI), with vorinostat 200 mg orally TID days 1–14): 20 mg/m^2

Change in Tmax, Cmax, and AUC0-8h [1]: no change
AUC lower with 60 mg/m^2 compared to 40 mg/m^2 alvocidib dose ([1]; WLMI schedule): 50%
Cmax lower with 60 mg/m^2 compared to 40 mg/m^2 alvocidib dose ([1]; WLMI schedule): 50%
SMILES: O=C(CCCCCCC(=O)Nc1ccccc1)NO[C@@H]1O[C@H](C(=O)O)[C@@H](O)[C@H](O)[C@H]1O [VG, vorinostat glucuronide]

Change in Tmax, Cmax, and AUC0-8h [1]: no change
SMILES: O=C(O)CCC(=O)Nc1ccccc1 [VA, 4-anilino-4-oxobutanoic acid]
